Measurements published in ChEMBL document CHEMBL1201862, “PubChem BioAssay data set” (2004).
Values joined by “and” are separate entries in the source; they are usually repeats but may differ in a detail not shown here. Identical values can stand only once.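 Where inhibition never reached the appropriate level, the endpoint shown equals the highest concentration tested. Otherwise, values were interpolated linearly from a five-concentration, 48-hour dose response in 96-well plates. The concentration for 50% growth inhibition is given as GI50.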 Active and inactive are the calls of the source. Rule as the data show it: active = GI50 up to about 1.1 µM and inactive = higher.

How the values were obtained:
Assay in all cases: inhibition of tumour cell growth, NCI panel, 48 h
[1] = tested on: CCRF-CEM
[2] = tested on: HCT-116
[3] = tested on: TK-10
[4] = tested on: SNB-75
[5] = tested on: OVCAR-3
[6] = tested on: DU-145
[7] = tested on: SF-539
[8] = tested on: M14
[9] = tested on: SF-295
[10] = tested on: LOX IMVI
[11] = tested on: NCI/ADR-RES
[12] = tested on: T47D
[13] = tested on: MCF7
[14] = tested on: SK-OV-3
[15] = tested on: CAKI-1
[16] = tested on: A549
[17] = tested on: MDA-N
[18] = tested on: NCI-H226
[19] = tested on: SK-MEL-28
[20] = tested on: BT-549

| Compound | GI50 [1] | GI50 [2] | GI50 [3] | GI50 [4] | GI50 [5] | GI50 [6] | GI50 [7] | GI50 [8] | GI50 [9] | GI50 [10] | GI50 [11] | GI50 [12] | GI50 [13] | GI50 [14] | GI50 [15] | GI50 [16] | GI50 [17] | GI50 [18] | GI50 [19] | GI50 [20] |
| --- | --- | --- | --- | --- | --- | --- | --- | --- | --- | --- | --- | --- | --- | --- | --- | --- | --- | --- | --- | --- |
| CC(C)(Oc1ccccc1)C(=O)Sc1c(-c2ccccc2)c(=O)n(-c2ccccc2)c(=S)n1-c1ccccc1 | 25.9 µM (inactive) | 50.1 µM (inactive) | 92.5 µM (inactive) | > 100 µM (inactive) | 32 µM (inactive) | 95.9 µM (inactive) | 23.8 µM (inactive) | 27 µM (inactive) | 59.8 µM (inactive) | 49.5 µM (inactive) | 62.7 µM (inactive) | 64.3 µM (inactive) | 46.6 µM (inactive) | 26.7 µM (inactive) | > 100 µM (inactive) | 43.3 µM (inactive) | 56.8 µM (inactive) | 31.1 µM (inactive) | 49.7 µM (inactive) | – |
| CN(C)c1ccc(C2CC(=O)CC(c3ccc(N(C)C)cc3)C23C(=O)NC(=S)NC3=O)cc1 (stereo not given) | > 100 µM (inactive) | > 100 µM (inactive) | > 100 µM (inactive) | 14.6 µM (inactive) | > 100 µM (inactive) | > 100 µM (inactive) | > 100 µM (inactive) | > 100 µM (inactive) | 57.9 µM (inactive) | > 100 µM (inactive) | > 100 µM (inactive) | > 100 µM (inactive) | 86.1 µM (inactive) | > 100 µM (inactive) | > 100 µM (inactive) | > 100 µM (inactive) | > 100 µM (inactive) | > 100 µM (inactive) | > 100 µM (inactive) | – |
| CC12CCC(C(Nc3cc(C(F)(F)F)cc(C(F)(F)F)c3)C1=O)C2(C)C (stereo not given) | – | > 100 µM (inactive) | > 100 µM (inactive) | – | > 100 µM (inactive) | > 100 µM (inactive) | > 100 µM (inactive) | > 100 µM (inactive) | > 100 µM (inactive) | > 100 µM (inactive) | > 100 µM (inactive) | > 100 µM (inactive) | > 100 µM (inactive) | > 100 µM (inactive) | > 100 µM (inactive) | > 100 µM (inactive) | – | > 100 µM (inactive) | > 100 µM (inactive) | > 100 µM (inactive) |
| Cc1cnc2nc(-c3ccc4ccccc4c3)cc(O)c2c1 | 0.323 µM (active) | – | 2.4 µM (inactive) | 0.391 µM (active) | – | 0.408 µM (active) | 0.391 µM (active) | 0.547 µM (active) | – | 0.728 µM (active) | 0.349 µM (active) | > 100 µM (inactive) | 0.561 µM (active) | 0.578 µM (active) | – | 0.625 µM (active) | – | 0.504 µM (active) | > 100 µM (inactive) | > 100 µM (inactive) |
| COc1ccc([C@@]23CCC(=O)C[C@@H]2N(C)CC3)cc1OC | > 100 µM (inactive) | – | > 100 µM (inactive) | > 100 µM (inactive) | > 100 µM (inactive) | > 100 µM (inactive) | > 100 µM (inactive) | > 100 µM (inactive) | > 100 µM (inactive) | > 100 µM (inactive) | > 100 µM (inactive) | > 100 µM (inactive) | > 100 µM (inactive) | > 100 µM (inactive) | > 100 µM (inactive) | > 100 µM (inactive) | > 100 µM (inactive) | > 100 µM (inactive) | > 100 µM (inactive) | – |
| CN(C)C(c1ccccc1)C1COC2Cc3ccccc3C1O2 (stereo not given) | 79.3 µM (inactive) | 98.2 µM (inactive) and 86.9 µM (inactive) | > 100 µM (inactive) | 24.9 µM (inactive) and 15.5 µM (inactive) | 47.1 µM (inactive) and 64 µM (inactive) | > 100 µM (inactive) | > 100 µM (inactive) | > 100 µM (inactive) | > 100 µM (inactive) | 62.2 µM (inactive) and 64.4 µM (inactive) | > 100 µM (inactive) | > 100 µM (inactive) | – | > 100 µM (inactive) | > 100 µM (inactive) | > 100 µM (inactive) | > 100 µM (inactive) | 72.9 µM (inactive) | > 100 µM (inactive) | – |
| O=S(=O)([N-]c1nc2ccccc2nc1-[n+]1ccccc1)c1ccccc1 | 10.8 µM (inactive) | > 100 µM (inactive) | 71.4 µM (inactive) | > 100 µM (inactive) | > 100 µM (inactive) | – | > 100 µM (inactive) | > 100 µM (inactive) | > 100 µM (inactive) | > 100 µM (inactive) | > 100 µM (inactive) | 81.8 µM (inactive) | > 100 µM (inactive) | > 100 µM (inactive) | > 100 µM (inactive) | > 100 µM (inactive) | – | > 100 µM (inactive) | – | 20.8 µM (inactive) |
| O/N=C1/CCCCCC1NO (stereo not given) | – | > 100 µM (inactive) | > 100 µM (inactive) | – | > 100 µM (inactive) | > 100 µM (inactive) | > 100 µM (inactive) | > 100 µM (inactive) | > 100 µM (inactive) | > 100 µM (inactive) | > 100 µM (inactive) | > 100 µM (inactive) | > 100 µM (inactive) | > 100 µM (inactive) | > 100 µM (inactive) | > 100 µM (inactive) | > 100 µM (inactive) | > 100 µM (inactive) | > 100 µM (inactive) | – |
